Test results from the NIST ThermoML archive (doi:10.1021/acs.jced.7b01125).
± gives the expanded uncertainty stated by the source.

Assay: xn = mol fraction of the nth substance listed
Settings: Gas, Buoyancy - hydrostatic balance with magnetic suspension - one sinker

[HH] [hydrogen] + C
Settings | mass density [kg/m3]
275.01 K, 5005 kPa, x2 = 0.9 | 35.103 ± 0.047
275.01 K, 6005 kPa, x2 = 0.9 | 42.849 ± 0.049
275.01 K, 6005 kPa, x2 = 0.9499 | 45.691 ± 0.052
275.01 K, 7005 kPa, x2 = 0.9 | 50.825 ± 0.051
275.01 K, 7005 kPa, x2 = 0.9499 | 54.384 ± 0.054
275.01 K, 8002 kPa, x2 = 0.9 | 58.973 ± 0.052
275.01 K, 8003 kPa, x2 = 0.9499 | 63.333 ± 0.055
275.01 K, 9002 kPa, x2 = 0.9 | 67.322 ± 0.054
275.01 K, 9003 kPa, x2 = 0.9499 | 72.54 ± 0.057
275.01 K, 10005 kPa, x2 = 0.9 | 75.811 ± 0.055
275.01 K, 10006 kPa, x2 = 0.9499 | 81.955 ± 0.059
275.01 K, 11001 kPa, x2 = 0.4997 | 43.883 ± 0.061
275.01 K, 11005 kPa, x2 = 0.9499 | 91.455 ± 0.06
275.01 K, 11006 kPa, x2 = 0.9 | 84.369 ± 0.057
275.01 K, 12007 kPa, x2 = 0.9 | 92.928 ± 0.058
275.01 K, 12009 kPa, x2 = 0.9499 | 101.013 ± 0.061
275.01 K, 13009 kPa, x2 = 0.9 | 101.458 ± 0.059
275.01 K, 13011 kPa, x2 = 0.9499 | 110.507 ± 0.062
275.01 K, 14003 kPa, x2 = 0.4997 | 55.493 ± 0.077
275.01 K, 14006 kPa, x2 = 0.9 | 109.837 ± 0.06
275.01 K, 14006 kPa, x2 = 0.9499 | 119.787 ± 0.062
275.01 K, 15000 kPa, x2 = 0.4997 | 59.259 ± 0.082
275.01 K, 15008 kPa, x2 = 0.9 | 118.086 ± 0.06
275.01 K, 15018 kPa, x2 = 0.9499 | 128.986 ± 0.062
275.01 K, 16003 kPa, x2 = 0.9 | 126.067 ± 0.061
275.01 K, 16005 kPa, x2 = 0.4997 | 63.009 ± 0.086
275.01 K, 16016 kPa, x2 = 0.9499 | 137.753 ± 0.062
275.01 K, 17006 kPa, x2 = 0.4997 | 66.693 ± 0.091
275.01 K, 17009 kPa, x2 = 0.9 | 133.878 ± 0.061
275.01 K, 17010 kPa, x2 = 0.9499 | 146.15 ± 0.062
275.01 K, 18001 kPa, x2 = 0.4997 | 70.294 ± 0.096
275.01 K, 18006 kPa, x2 = 0.9 | 141.344 ± 0.06
275.01 K, 19020 kPa, x2 = 0.9499 | 161.966 ± 0.061
275.01 K, 19297 kPa, x2 = 0.4997 | 74.901 ± 0.1
275.01 K, 19909 kPa, x2 = 0.9499 | 168.44 ± 0.061
275.02 K, 18019 kPa, x2 = 0.9499 | 154.292 ± 0.062
275.02 K, 19012 kPa, x2 = 0.9 | 148.567 ± 0.061
275.02 K, 19897 kPa, x2 = 0.9 | 154.661 ± 0.071
299.95 K, 3999 kPa, x2 = 0.9 | 24.698 ± 0.042
299.95 K, 16003 kPa, x2 = 0.9 | 107.531 ± 0.053
299.96 K, 999 kPa, x2 = 0.9 | 5.941 ± 0.039
299.96 K, 999 kPa, x2 = 0.9499 | 6.241 ± 0.04
299.96 K, 1999 kPa, x2 = 0.9 | 12.047 ± 0.04
299.96 K, 2000 kPa, x2 = 0.9499 | 12.675 ± 0.041
299.96 K, 2983 kPa, x2 = 0.9499 | 19.18 ± 0.042
299.96 K, 2990 kPa, x2 = 0.9 | 18.241 ± 0.041
299.96 K, 3999 kPa, x2 = 0.9499 | 26.096 ± 0.043
299.96 K, 4999 kPa, x2 = 0.9 | 31.243 ± 0.043
299.96 K, 4999 kPa, x2 = 0.9499 | 33.078 ± 0.045
299.96 K, 5999 kPa, x2 = 0.9 | 37.914 ± 0.044
299.96 K, 6000 kPa, x2 = 0.9499 | 40.236 ± 0.046
299.96 K, 6999 kPa, x2 = 0.9 | 44.708 ± 0.045
299.96 K, 7000 kPa, x2 = 0.9499 | 47.554 ± 0.048
299.96 K, 8001 kPa, x2 = 0.9 | 51.609 ± 0.046
299.96 K, 8001 kPa, x2 = 0.9499 | 55.012 ± 0.048
299.96 K, 9002 kPa, x2 = 0.9 | 58.59 ± 0.047
299.96 K, 9003 kPa, x2 = 0.9499 | 62.59 ± 0.049
299.96 K, 10003 kPa, x2 = 0.9 | 65.636 ± 0.049
299.96 K, 10004 kPa, x2 = 0.9499 | 70.258 ± 0.051
299.96 K, 11001 kPa, x2 = 0.9499 | 77.955 ± 0.052
299.96 K, 11003 kPa, x2 = 0.9 | 72.706 ± 0.049
299.96 K, 12002 kPa, x2 = 0.9 | 79.763 ± 0.05
299.96 K, 12003 kPa, x2 = 0.9499 | 85.693 ± 0.053
299.96 K, 13002 kPa, x2 = 0.9 | 86.81 ± 0.051
299.96 K, 13003 kPa, x2 = 0.9499 | 93.405 ± 0.053
299.96 K, 14003 kPa, x2 = 0.9 | 93.813 ± 0.052
299.96 K, 14006 kPa, x2 = 0.9499 | 101.077 ± 0.054
299.96 K, 15004 kPa, x2 = 0.9499 | 108.622 ± 0.055
299.96 K, 15005 kPa, x2 = 0.9 | 100.739 ± 0.053
299.96 K, 16005 kPa, x2 = 0.9499 | 116.045 ± 0.054
299.96 K, 17007 kPa, x2 = 0.9 | 114.233 ± 0.053
299.96 K, 17007 kPa, x2 = 0.9499 | 123.312 ± 0.055
299.96 K, 18003 kPa, x2 = 0.9 | 120.727 ± 0.054
299.96 K, 18007 kPa, x2 = 0.9499 | 130.371 ± 0.055
299.96 K, 18999 kPa, x2 = 0.9499 | 137.175 ± 0.058
299.96 K, 19011 kPa, x2 = 0.9 | 127.134 ± 0.055
299.96 K, 19426 kPa, x2 = 0.9499 | 140.03 ± 0.044
299.96 K, 19795 kPa, x2 = 0.9 | 131.987 ± 0.064
324.96 K, 999 kPa, x2 = 0.9 | 5.467 ± 0.037
324.96 K, 1002 kPa, x2 = 0.4997 | 3.349 ± 0.029
324.96 K, 1999 kPa, x2 = 0.9 | 11.036 ± 0.037
324.96 K, 2003 kPa, x2 = 0.4997 | 6.689 ± 0.03
324.96 K, 2987 kPa, x2 = 0.4997 | 9.973 ± 0.031
324.96 K, 2999 kPa, x2 = 0.9 | 16.7 ± 0.038
324.96 K, 4000 kPa, x2 = 0.9 | 22.453 ± 0.039
324.96 K, 4001 kPa, x2 = 0.4997 | 13.346 ± 0.032
324.96 K, 4999 kPa, x2 = 0.9 | 28.286 ± 0.04
324.96 K, 5001 kPa, x2 = 0.4997 | 16.663 ± 0.033
324.96 K, 6000 kPa, x2 = 0.9 | 34.198 ± 0.041
324.96 K, 6001 kPa, x2 = 0.4997 | 19.966 ± 0.035
324.96 K, 6999 kPa, x2 = 0.9 | 40.162 ± 0.042
324.96 K, 7000 kPa, x2 = 0.4997 | 23.25 ± 0.037
324.96 K, 8002 kPa, x2 = 0.4997 | 26.528 ± 0.039
324.96 K, 8004 kPa, x2 = 0.9 | 46.209 ± 0.042
324.96 K, 8999 kPa, x2 = 0.4997 | 29.768 ± 0.042
324.96 K, 9000 kPa, x2 = 0.9 | 52.245 ± 0.043
324.96 K, 9001 kPa, x2 = 0.9499 | 55.531 ± 0.045
324.96 K, 9926 kPa, x2 = 0.4997 | 32.763 ± 0.045
